Data: PubChem BioAssay AID504824 (The Scripps Research Institute Molecular Screening Center, 2011)
Activity calls are given as the source filed them.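 How the source made its calls: active means compound reaching half of full procaspase-3 activation at 10 µM or lower; inactive means the rest.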

These compounds were tested against Caspase-3 (Homo sapiens) (UniProt P42574) (assay: activators of human procaspase-3 D3A mutant – biochemical, absorbance, PC-3 D3A mutant, powder samples, counter-screen for dual procaspase-3/7 activator project, late-stage follow-up (AID 504824)). Details: recombinant PC-3 D3A, Ac-DEVD-pNA absorbance 405 nm.
Caspase-3 (Homo sapiens), sequence (P42574 whole entry D9A/D28A/D175A): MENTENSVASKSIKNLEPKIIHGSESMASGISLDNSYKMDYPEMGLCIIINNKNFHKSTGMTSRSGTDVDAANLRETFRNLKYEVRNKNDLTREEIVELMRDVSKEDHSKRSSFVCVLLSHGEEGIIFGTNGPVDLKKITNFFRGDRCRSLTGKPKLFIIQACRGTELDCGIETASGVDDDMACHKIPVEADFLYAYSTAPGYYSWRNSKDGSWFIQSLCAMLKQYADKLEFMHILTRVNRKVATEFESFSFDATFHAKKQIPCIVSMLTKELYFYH
With Cc1[nH]nc2c1C(c1c[nH]c3ccccc13)C(C#N)=C(N)O2 (stereo not given) the EC50 was 3.62 µM. O=C(C1=NN(c2ccccc2)C2C(=O)N(c3ccccc3)C(=O)C12)c1ccccc1 (stereo not given) was tested, and the EC50 was > 85.3 µM (inactive). For COC(=O)C1=NN(c2ccc(Cl)cc2)C2C(=O)N(c3ccccc3OC)C(=O)C12 (stereo not given), the EC50 was > 85.3 µM (inactive). COc1ccccc1N1C(=O)C2C(C(=O)c3ccccc3)=NN(c3ccccc3)C2C1=O (stereo not given) was tested, and the EC50 was > 85.3 µM (inactive). O=C(Nc1ccc(Cc2ccncc2)cc1)C1CCC(N2C(=O)C3C4C=CC(C5CC45)C3C2=O)CC1 (stereo not given) was tested, and the EC50 was > 85.3 µM (inactive).
